Earlier results in PMC6611794, “Development of a high-throughput strategy for discovery of potent analogues of antibiotic lysocin E” (Nature Communications, 2019).

Tested on: S. aureus
Design: method as in PMID 25485686
Conditions: S. aureus-infected mice; cited from earlier work
Text: Lysocin E (1, Fig. 1a) was isolated from Lysobacter sp. as a new antibiotic and structurally determined to be a 37-membered depsipeptide (molecular weight = 1618 Da) with an N-methylated amide and ester linkages. The macrocyclic core of 12 residues contains four different non-proteinogenic D-amino acids (D-Arg-2/7, N-Me-D-Phe-5, D-Gln-9, D-Trp-10) and is appended with (R)-3-hydroxy-5-methylhexanamide. […] Screening of the additives ind ...

In the case of `CN[C@H](CC(C)C)C(=O)N[C@H]1C(=O)N[C@@H](CC(N)=O)C(=O)N[C@H]2C(=O)N[C@H]3C(=O)N[C@H](C(=O)N[C@H](C(=O)O)c4cc(O)cc(O)c4-c4cc3ccc4O)[C@H](O)c3ccc(c(Cl)c3)Oc3cc2cc(c3O[C@@H]2O[C@H](CO)[C@@H](O)[C@H](O)[C@H]2O[C@H]2C[C@](C)(N)[C@H](O)[C@H](C)O2)Oc2ccc(cc2Cl)[C@H]1O` [vancomycin, reference compound], the ED50 is listed as 5.8 mg/kg.
